Experimental data taken from PubChem BioAssay AID330 (DTP/NCI, 2004).
“And” between values parts separate entries of the source, which are not always exact repeats. Equal entries are not always repeated. Toxic doses and inconclusive results are not listed. Peptide text beside a SMILES is read from it.

Tested on: P388 leukemia ip, CD2F1 mice, survival T/C
Test: NCI In Vivo Anticancer Drug Screen. Data for tumor model P388 Leukemia (intraperitoneal) in CD2F1 (CDF1) mice
Conditions: endpoint: median survival time, higher = longer survival
How it was run: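 Mice carrying the transplanted tumor received test compound or vehicle. Survival was recorded in each group, and the value is the treated-group measurement divided by that of the vehicle-treated control group.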

[1] = dose: 12.5 mg/kg/injection, schedule: Q01DX009 (ip), vehicle: saline with Tween-80
[2] = dose: 50.0 mg/kg/injection, schedule: Q01DX005 (ip), vehicle: Klucel (hydroxypropylcellulose) (HPC)
[3] = dose: 100.0 mg/kg/injection, schedule: Q01DX005 (ip), vehicle: Klucel (hydroxypropylcellulose) (HPC)
[4] = dose: 200.0 mg/kg/injection, schedule: Q01DX005 (ip), vehicle: Klucel (hydroxypropylcellulose) (HPC)
[5] = dose: 6.25 mg/kg/injection, schedule: Q01DX009 (ip), vehicle: saline with Tween-80
[6] = dose: 50.0 mg/kg/injection, schedule: Q01DX005 (ip), vehicle: saline with Tween-80
[7] = dose: 100.0 mg/kg/injection, schedule: Q01DX005 (ip), vehicle: saline with Tween-80
[8] = dose: 200.0 mg/kg/injection, schedule: Q01DX005 (ip), vehicle: saline with Tween-80
[9] = dose: 50.0 mg/kg/injection, schedule: Q01DX009 (ip), vehicle: saline with Tween-80

For `CCOC(=O)CC1(O)CCC2C3CC=C4CC(OC5CCCCO5)CCC4(C)C3CCC21C` (stereo not given), the T/C (dose: 3.0 mg/kg/injection, schedule: Q01DX009 (ip), vehicle: saline with Tween-80) was 101 % of control, the T/C (dose: 6.0 mg/kg/injection, schedule: Q01DX009 (ip), vehicle: saline with Tween-80) was 99 % of control and the T/C (dose: 12.0 mg/kg/injection, schedule: Q01DX009 (ip), vehicle: saline with Tween-80) was 100 % of control. The T/C [1] was 88 % of control.

`CC1=CC2OC3C(OC(=O)CCCCl)C(OC(=O)CCCCl)C(C)(C2(CO)CC1)C31CO1` (stereo not given) was tested, and the T/C (dose: 4.0 mg/kg/injection, schedule: Q01DX009 (ip), vehicle: saline with Tween-80) was 152 % of control and the T/C (dose: 8.0 mg/kg/injection, schedule: Q01DX009 (ip), vehicle: saline with Tween-80) was 172 % of control.

In the case of `[O-]c1on[n+](-c2ccccc2)c1CN1CCOCC1`, the T/C [2] is reported as 107 % of control, the T/C [3] is reported as 111 % of control and the T/C [4] is reported as 102 % of control.

In the case of `O=C(CNC(=O)c1ccc(Cl)cc1Cl)N/N=C/c1ccc(Cl)c(Cl)c1`, the T/C (dose: 3.13 mg/kg/injection, schedule: Q01DX009 (ip), vehicle: saline with Tween-80) is reported as 104 % of control, the T/C [5] is reported as 108 % of control and the T/C [1] is reported as 104 % of control.

With `O=C(O)C(Cc1ccc(O)cc1)c1ccc(C(Cc2ccc(O)cc2)C(=O)O)cc1` (stereo not given) the T/C [6] was 105 % of control, the T/C [7] was 102 % of control and the T/C [8] was 100 % of control.

For `COC(=O)C1c2c(C)cc3n2C(C(C)=CC3)C1C(=O)OC` (stereo not given), the T/C (dose: 100.0 mg/kg/injection, schedule: Q04DX003 (ip), vehicle: Klucel (hydroxypropylcellulose) (HPC)) was 99 % of control, the T/C (dose: 200.0 mg/kg/injection, schedule: Q04DX003 (ip), vehicle: Klucel (hydroxypropylcellulose) (HPC)) was 96 % of control and the T/C (dose: 400.0 mg/kg/injection, schedule: Q04DX003 (ip), vehicle: Klucel (hydroxypropylcellulose) (HPC)) was 99 % of control.

`NC(CCC(=O)O)C(=O)NC(Cc1ccc(O)cc1)C(=O)NC(CCC(=O)O)C(=O)O` (stereo not drawn) (H-Glu-Tyr-Glu-OH; configuration not given here) was tested, and the T/C [2] was 93 % of control, the T/C [3] was 100 % of control and the T/C [4] was 98 % of control.

For `COc1cc(COC(=O)Nc2ccccc2F)cc(OC)c1OC`, the T/C [6] was 93 % of control, the T/C [7] was 101 % of control and the T/C [8] was 92 % of control.

In the case of `C1CC(N2CC2)CCC1N1CC1` (stereo not given), the T/C (dose: 1.56 mg/kg/injection, schedule: Q01DX009 (ip), vehicle: saline) is reported as 182 % of control and the T/C (dose: 3.12 mg/kg/injection, schedule: Q01DX009 (ip), vehicle: saline) is reported as 237 % of control.

For `COC(=O)C1=C(C(=O)OC)C(c2ccccc2)N(C)O1` (stereo not given), the T/C [6] was 103 % of control, the T/C [7] was 98 % of control and the T/C [8] was 106 % of control.

With `C=C1C2CCC3C45C=NCC(C)(CCC4)C5CCC3(C2)C1OC(C)=O` (stereo not given) the T/C (dose: 2.0 mg/kg/injection, schedule: Q01DX009 (ip), vehicle: Klucel (hydroxypropylcellulose) (HPC)) was 104 % of control, the T/C (dose: 4.0 mg/kg/injection, schedule: Q01DX009 (ip), vehicle: Klucel (hydroxypropylcellulose) (HPC)) was 94 % of control and the T/C (dose: 8.0 mg/kg/injection, schedule: Q01DX009 (ip), vehicle: Klucel (hydroxypropylcellulose) (HPC)) was 104 % of control. For the same compound, the T/C (dose: 16.0 mg/kg/injection, schedule: Q01DX009 (ip), vehicle: Klucel (hydroxypropylcellulose) (HPC)) was 93 % of control.

For `C(=C(\CCc1ccccn1)c1ccccn1)/c1cccnc1`, the T/C (dose: 100.0 mg/kg/injection, schedule: Q01DX001 (ip), vehicle: saline) was 100 % of control, the T/C (dose: 200.0 mg/kg/injection, schedule: Q01DX001 (ip), vehicle: saline) was 101 % of control and the T/C (dose: 400.0 mg/kg/injection, schedule: Q01DX001 (ip), vehicle: saline) was 104 % of control.

With `CCCc1cc(-c2cccc3ccccc23)c(CCC)c2c1-c1cccc3cccc-2c13` the T/C [9] was 97 % of control and the T/C (dose: 100.0 mg/kg/injection, schedule: Q01DX009 (ip), vehicle: saline with Tween-80) was 96 % of control.

For `CC(C)(C)NC(=O)c1ccc2c(n1)C(=O)N(C(C)(C)C)C2=S`, the T/C (dose: 100.0 mg/kg/injection, schedule: Q01DX001 (ip), vehicle: saline with Tween-80) was 91 % of control, the T/C (dose: 200.0 mg/kg/injection, schedule: Q01DX001 (ip), vehicle: saline with Tween-80) was 94 % of control and the T/C (dose: 400.0 mg/kg/injection, schedule: Q01DX001 (ip), vehicle: saline with Tween-80) was 100 % of control.

`Cc1cnc(C2OCCO2)c2cccc(N)c12` was tested, and the T/C (dose: 50.0 mg/kg/injection, schedule: Q01DX009 (ip), vehicle: Klucel (hydroxypropylcellulose) (HPC)) was 104 % of control, the T/C (dose: 100.0 mg/kg/injection, schedule: Q01DX009 (ip), vehicle: Klucel (hydroxypropylcellulose) (HPC)) was 105 % of control and the T/C (dose: 200.0 mg/kg/injection, schedule: Q01DX009 (ip), vehicle: Klucel (hydroxypropylcellulose) (HPC)) was 112 % of control.

In the case of `COc1cccc2c1C(=O)c1c(O)c3c(c(O)c1C2=O)C[C@@](O)(C(C)=O)C[C@@H]3OC1CC(N2CCSCC2)C(O)C(C)O1` (stereo not given in full), the T/C (dose: 0.39 mg/kg/injection, schedule: Q04DX003 (ip), vehicle: distilled water + Tween-80) is reported as 118 % of control, the T/C (dose: 0.78 mg/kg/injection, schedule: Q04DX003 (ip), vehicle: distilled water + Tween-80) is reported as 100 % of control and the T/C (dose: 1.56 mg/kg/injection, schedule: Q04DX003 (ip), vehicle: distilled water + Tween-80) is reported as 103 % of control. The T/C (dose: 3.12 mg/kg/injection, schedule: Q04DX003 (ip), vehicle: distilled water + Tween-80) was 113 % of control, the T/C (dose: 6.25 mg/kg/injection, schedule: Q04DX003 (ip), vehicle: distilled water + Tween-80) was 106 % of control and the T/C (dose: 6.25 mg/kg/injection, schedule: Q04DX003 (ip), vehicle: water) was 105 % of control. For the same compound, the T/C (dose: 12.5 mg/kg/injection, schedule: Q04DX003 (ip), vehicle: distilled water + Tween-80) was 123 % of control, the T/C (dose: 12.5 mg/kg/injection, schedule: Q04DX003 (ip), vehicle: water) was 113 % of control and the T/C (dose: 25.0 mg/kg/injection, schedule: Q04DX003 (ip), vehicle: distilled water + Tween-80) was 124 % of control. The T/C (dose: 25.0 mg/kg/injection, schedule: Q04DX003 (ip), vehicle: water) was 123 % of control and the T/C (dose: 50.0 mg/kg/injection, schedule: Q04DX003 (ip), vehicle: water) was 169 % of control.

For `O=C(NC(=S)c1ccc(Br)cc1)Nc1ccccc1`, the T/C (dose: 2.5 mg/kg/injection, schedule: Q01DX009 (ip), vehicle: saline with Tween-80) was 90 % of control, the T/C (dose: 5.0 mg/kg/injection, schedule: Q01DX009 (ip), vehicle: saline with Tween-80) was 103 % of control and the T/C (dose: 10.0 mg/kg/injection, schedule: Q01DX009 (ip), vehicle: saline with Tween-80) was 88 % of control.

With `O=S(=O)(c1ccccc1)N(Cl)Cl` the T/C [5] was 102 % of control and 104 % of control and 123 % of control, the T/C [1] was 104 % of control and 120 % of control and 93 % of control and the T/C [9] was 111 % of control.

For `O=C1N[C@@H]([C@H]2CC[C@H](Cl)CN2)C(=O)N[C@H]1[C@H]1CC[C@H](Cl)CN1`, the T/C (dose: 0.25 mg/kg/injection, schedule: Q01DX005 (iv), vehicle: saline) was 118 % of control, the T/C (dose: 0.39 mg/kg/injection, schedule: Q01DX009 (ip), vehicle: water) was 158 % of control and 182 % of control and the T/C (dose: 0.5 mg/kg/injection, schedule: Q01DX005 (iv), vehicle: saline) was 118 % of control. The T/C (dose: 0.78 mg/kg/injection, schedule: Q01DX009 (ip), vehicle: water) was 184 % of control and 214 % of control, the T/C (dose: 1.0 mg/kg/injection, schedule: Q01DX001 (ip), vehicle: saline) was 123 % of control and the T/C (dose: 1.0 mg/kg/injection, schedule: Q01DX005 (ip), vehicle: saline) was 181 % of control. For the same compound, the T/C (dose: 1.0 mg/kg/injection, schedule: Q01DX005 (iv), vehicle: saline) was 120 % of control, the T/C (dose: 1.56 mg/kg/injection, schedule: Q01DX009 (ip), vehicle: water) was 122 % of control and 223 % of control and the T/C (dose: 2.0 mg/kg/injection, schedule: Q01DX001 (ip), vehicle: saline) was 123 % of control. For the same compound, the T/C (dose: 2.0 mg/kg/injection, schedule: Q01DX005 (ip), vehicle: saline) was 227 % of control, the T/C (dose: 2.0 mg/kg/injection, schedule: Q01DX005 (iv), vehicle: saline) was 157 % of control and the T/C (dose: 2.0 mg/kg/injection, schedule: Q01DX005 (oral), vehicle: saline) was 180 % of control. The T/C (dose: 4.0 mg/kg/injection, schedule: Q01DX001 (ip), vehicle: saline) was 151 % of control, the T/C (dose: 4.0 mg/kg/injection, schedule: Q01DX005 (ip), vehicle: saline) was 100 % of control and the T/C (dose: 4.0 mg/kg/injection, schedule: Q01DX005 (iv), vehicle: saline) was 200 % of control. For the same compound, the T/C (dose: 4.4 mg/kg/injection, schedule: Q01DX001 (ip), vehicle: saline) was 172 % of control and 176 % of control and 177 % of control, the T/C (dose: 6.7 mg/kg/injection, schedule: Q01DX001 (ip), vehicle: saline) was 172 % of control and 190 % of control and 211 % of control and the T/C (dose: 10.0 mg/kg/injection, schedule: Q01DX001 (ip), vehicle: saline) was 216 % of control and 220 % of control and 250 % of control. The T/C (dose: 16.0 mg/kg/injection, schedule: Q01DX001 (ip), vehicle: saline) was 209 % of control.
